According to PubChem BioAssay AID256 (DTP/NCI, 2004):
Toxic doses and inconclusive results are not listed. How the source made its calls: active means survival T/C of 150% or more; inactive means T/C below 125% in these data.

Tested on: CD2F1 mice, L1210 leukemia ip, survival T/C
Experiment: NCI In Vivo Anticancer Drug Screen. Data for tumor model L1210 Leukemia (intraperitoneal) in CD2F1 (CDF1) mice
Settings: higher = longer survival
Outline: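 Transplantable tumor in mice; compound-treated vs vehicle-treated groups. Read-out = treated/control ratio of the measured endpoint.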

[1] = endpoint: mean survival time, dose: 12.5 mg/kg/injection, schedule: Q04DX003 (ip), vehicle: saline with Tween-80
[2] = endpoint: mean survival time, dose: 25.0 mg/kg/injection, schedule: Q04DX003 (ip), vehicle: saline with Tween-80
[3] = endpoint: mean survival time, dose: 50.0 mg/kg/injection, schedule: Q04DX003 (ip), vehicle: saline with Tween-80
[4] = endpoint: mean survival time, dose: 100.0 mg/kg/injection, schedule: Q01DX001 (ip), vehicle: saline with Tween-80
[5] = endpoint: mean survival time, dose: 200.0 mg/kg/injection, schedule: Q01DX001 (ip), vehicle: saline with Tween-80
[6] = endpoint: mean survival time, dose: 400.0 mg/kg/injection, schedule: Q01DX001 (ip), vehicle: saline with Tween-80
[7] = endpoint: mean survival time, dose: 100.0 mg/kg/injection, schedule: Q01DX009 (ip), vehicle: saline with Tween-80
[8] = endpoint: mean survival time, dose: 100.0 mg/kg/injection, schedule: Q04DX003 (ip), vehicle: saline with Tween-80
[9] = endpoint: mean survival time, dose: 200.0 mg/kg/injection, schedule: Q04DX003 (ip), vehicle: saline with Tween-80
[10] = endpoint: mean survival time, dose: 400.0 mg/kg/injection, schedule: Q04DX003 (ip), vehicle: saline with Tween-80
[11] = endpoint: mean survival time, dose: 50.0 mg/kg/injection, schedule: Q01DX009 (ip), vehicle: saline
[12] = endpoint: mean survival time, dose: 50.0 mg/kg/injection, schedule: Q01DX009 (ip), vehicle: saline with Tween-80

Measured: T/C

O=S1(=O)CCC2C1C1(Cl)C(Cl)=C(Cl)C2(Cl)C1(Cl)Cl (configuration not stated)
inactive: endpoint: mean survival time, dose: 12.5 mg/kg/injection, schedule: Q01DX009 (ip), vehicle: saline sonified 104 % of control | [1] 103 % of control | endpoint: mean survival time, dose: 25.0 mg/kg/injection, schedule: Q01DX009 (ip), vehicle: saline sonified 103 % of control | [2] 97 % of control | [3] 98 % of control

N#Cc1nc(N)nc2c1ncn2-c1ccc(C(N)=O)cc1
inactive: [4] 96 % of control | [5] 101 % of control | [6] 90 % of control

OC12CC3C4CC(O1)C1C4CC3C12 (configuration not stated)
inactive: endpoint: mean survival time, dose: 100.0 mg/kg/injection, schedule: Q01DX001 (ip), vehicle: saline 100 % of control | endpoint: mean survival time, dose: 200.0 mg/kg/injection, schedule: Q01DX001 (ip), vehicle: saline 96 % of control | endpoint: mean survival time, dose: 400.0 mg/kg/injection, schedule: Q01DX001 (ip), vehicle: saline 96 % of control

O=Nc1c(O)sc2ccccc12
inactive: [4] 110 % of control | [7] 97 % of control | [5] 105 % of control | endpoint: mean survival time, dose: 200.0 mg/kg/injection, schedule: Q01DX009 (ip), vehicle: saline with Tween-80 100 % of control | [6] 95 % of control | endpoint: mean survival time, dose: 400.0 mg/kg/injection, schedule: Q01DX009 (ip), vehicle: saline with Tween-80 94 % of control

CCOC(=O)C1=C2CC(C)(C)CCC2(C)CCC1=O (configuration not stated)
inactive: endpoint: mean survival time, dose: 100.0 mg/kg/injection, schedule: Q04DX002 (ip), vehicle: saline with Tween-80 100 % of control | endpoint: mean survival time, dose: 200.0 mg/kg/injection, schedule: Q04DX002 (ip), vehicle: saline with Tween-80 100 % of control | endpoint: mean survival time, dose: 400.0 mg/kg/injection, schedule: Q04DX002 (ip), vehicle: saline with Tween-80 88 % of control

COc1ccc(CCNC(=O)Cc2ccccc2)cc1OC
inactive: [8] 103 % of control | [9] 94 % of control | [10] 91 % of control

NC(N)=N/N=C(/c1ccccc1)c1ccc(F)cc1
inactive: [11] 101 % of control

CC1=CC=CC(C)(C(Cl)Cl)C1=O (configuration not stated)
inactive: [12] 97 % of control | [7] 89 % of control | [8] 96 % of control | [9] 103 % of control | endpoint: mean survival time, dose: 1200.0 mg/kg/injection, schedule: Q01DX009 (ip), vehicle: saline with Tween-80 93 % of control

O=C(C=C(C(F)(F)F)C(F)(F)F)c1ccco1
inactive: [1] 105 % of control | [2] 102 % of control | [3] 94 % of control

N#CC1C=Cc2ccccc2N1C(=O)Oc1ccccc1 (configuration not stated)
inactive: endpoint: mean survival time, dose: 100.0 mg/kg/injection, schedule: Q01DX009 (ip), vehicle: saline 95 % of control | endpoint: mean survival time, dose: 200.0 mg/kg/injection, schedule: Q01DX009 (ip), vehicle: saline 93 % of control | endpoint: mean survival time, dose: 400.0 mg/kg/injection, schedule: Q01DX009 (ip), vehicle: saline 89 % of control

C/C=C(\C)C(=O)OC1C(C)=C2C(C1OC(=O)CCCCC)C(C)(OC(C)=O)CC(OC(=O)CCC)C1(O)C2OC(=O)C1(C)O (configuration not stated)
inactive: endpoint: median survival time, dose: 0.5 mg/kg/injection, schedule: Q01DX005 (ip), vehicle: Klucel (hydroxypropylcellulose) (HPC) 113 % of control | endpoint: median survival time, dose: 1.0 mg/kg/injection, schedule: Q01DX005 (ip), vehicle: Klucel (hydroxypropylcellulose) (HPC) 118 % of control | endpoint: median survival time, dose: 2.0 mg/kg/injection, schedule: Q01DX005 (ip), vehicle: Klucel (hydroxypropylcellulose) (HPC) 122 % of control

CC(C)(C)OC(=O)NC(CSSCC(NC(=O)OC(C)(C)C)C(=O)O)C(=O)O (configuration not stated)
inactive: [8] 92 % of control | [9] 92 % of control | [10] 90 % of control

NC1=NC(c2ccc(Cl)cc2)N(c2ccc(S(N)(=O)=O)cc2)C(N)=N1 (configuration not stated)
inactive: endpoint: mean survival time, dose: 25.0 mg/kg/injection, schedule: Q01DX009 (ip), vehicle: saline with Tween-80 100 % of control | [12] 100 % of control | [7] 96 % of control

N#CC1(Nc2ccccc2)CCCCC1
inactive: endpoint: mean survival time, dose: 50.0 mg/kg/injection, schedule: Q01DX009 (ip), vehicle: other 95 % of control | endpoint: mean survival time, dose: 100.0 mg/kg/injection, schedule: Q01DX009 (ip), vehicle: other 102 % of control | [8] 97 % of control | [9] 100 % of control

COc1cc2cc3c4cc(OC)c(OC)cc4cc[n+]3c(C)c2cc1OC (tested in a mixture with another compound)
inactive: [11] 95 % of control | endpoint: mean survival time, dose: 50.0 mg/kg/injection, schedule: Q04DX003 (ip), vehicle: saline 91 % of control | endpoint: mean survival time, dose: 200.0 mg/kg/injection, schedule: Q04DX003 (ip), vehicle: saline 122 % of control | [10] 88 % of control
